Test system: gp46 mRNA
Assay: pHSC in vitro assay, gp46 gene knockdown by qRT-PCR
Type: cell-based, rat
Details: @ 50 nM

| Compound | in vitro (pHSC) % KD |
| --- | --- |
| CCCCCCCCCCCC(=O)OCCN(CCOC(=O)CCCCCCCCCCC)C(=O)C[N+](C)(C)CCO.[Br-] [HEDC-12, 2-(bis(2-(dodecanoyloxy)ethyl)amino)-N-(2-hydroxyethyl)-N,N-dimethyl-2-oxoethanaminium bromide] | i. 0% @ 50 nM |
| CCCCC/C=C\C/C=C\CCCCCCCC(=O)OCCN(CCOC(=O)CCCCCCC/C=C\C/C=C\CCCCC)C(=O)C[N+](C)(C)CCO.[Br-] [HEDC-DLin, 2-(bis(2-((9Z,12Z)-octadeca-9,12-dienoyloxy)ethyl)amino)-N-(2-hydroxyethyl)-N,N-dimethyl-2-oxoethanaminium bromide] | i. 50% @ 50 nM |
